What all share (assay): NCI-60 cell line screen, 48 h
In assay [1] the test system is SNB-75 CNS.
In assay [2] the test system is HCT-116 colon.
For assay [3], the system named is SW-620 colon.
The subject of assay [4] is OVCAR-8 ovarian.
The subject of assay [5] is A549 NSCLC.
Assay [6] concerns UACC-62 melanoma.
Assay [7] relates to NCI-H226 lung.
Assay [8] deals with U251 CNS.

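How tested: cells in 96-well plates exposed to compound for 48 hours at five concentrations. GI50: concentration for 50% inhibition of growth. At the TGI there is no net growth.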

For the compound `O=C1c2ccccc2CC1C1(O)C(=O)Nc2ccccc21` (configuration not stated), the TGI in assay [1], in assay [2], in assay [3], in assay [4], in assay [5] and in assay [6] was > 100 µM each time. Further, the TGI in assay [7] is > 100 µM.

For `N#Cc1cc([N+](=O)[O-])ccc1NC(=O)/C(=N/N)C(C(=O)c1ccc(Cl)c(Cl)c1)C1OC(=O)c2ccccc21` (configuration not stated), the TGI in assay [8], in assay [2], in assay [3], in assay [4], in assay [5] and in assay [6] was > 100 µM in each case. Further, the TGI in assay [7] is > 100 µM.

For `COc1cc(C)c(O)c(C(=O)O)c1`, the TGI in assay [1], in assay [8], in assay [2], in assay [3], in assay [4] and in assay [5] was > 100 µM throughout. Moreover, the TGI in assay [6] and in assay [7] was > 100 µM each time.

In the case of `CCOC(=O)c1nc(-c2ccccc2)oc1OCC`, the TGI in assay [1], in assay [8], in assay [2], in assay [3], in assay [4] and in assay [5] was > 100 µM each time. Also, the TGI in assay [6] and in assay [7] was > 100 µM throughout.

Regarding `Cc1ccc(Sc2ccc(C)cc2[N+](=O)[O-])c([N+](=O)[O-])c1`, the TGI in assay [1], in assay [8], in assay [2], in assay [3], in assay [4] and in assay [5] was > 100 µM in each case. Also, the TGI in assay [6] and in assay [7] was > 100 µM each time.

Regarding `CC(C)C12C=CC(C)(CC1)n1c(=O)c3cc4ccccc4cc3c(=O)n12` (configuration not stated), the TGI in assay [1], in assay [8], in assay [2], in assay [3], in assay [4] and in assay [5] was > 100 µM each time. The TGI in assay [7] was > 100 µM.

In the case of `COC(=O)c1cc(-c2cccn2C)c2c(c1C(=O)OC)c1ccccc1n2C`, the TGI in assay [1], in assay [8], in assay [3], in assay [4], in assay [5] and in assay [6] was > 100 µM each time.

In the case of `C=CC1C(OC2OC(CO)C(O)C(O)C2O)OC=C(C(=O)OC)C1CC=O` (configuration not stated), the TGI in assay [1], in assay [8], in assay [3], in assay [5], in assay [6] and in assay [7] was > 100 µM each time.

Consider `COc1cc(/C=C/C(=O)c2sc(NNC(C)=O)nc2C)ccc1O`, for which the TGI in assay [1], in assay [8], in assay [3], in assay [4], in assay [5] and in assay [6] was > 100 µM in each case. Moreover, the TGI in assay [7] is > 100 µM.

As for `C=CCNC(=O)NCCCC(NC(C)=O)C(=O)NCc1ccccc1` (configuration not stated), the TGI in assay [1], in assay [8], in assay [3], in assay [4], in assay [5] and in assay [6] was > 100 µM throughout. Further, the TGI in assay [7] is > 100 µM.

`C=CCC(OCCOCC)c1cc(OCCOCC)ccc1OC` (configuration not stated): the TGI in assay [1], in assay [8], in assay [3], in assay [4], in assay [5] and in assay [6] was > 100 µM throughout. Besides, the TGI in assay [7] is > 100 µM.

Turning to `C/C=C/C=C/CCCCCCCCCCCCCC1(OC)C=CC(CC(=O)OC)OO1` (configuration not stated), the TGI in assay [1] was determined as 22.4 µM; in assay [8], 31.2 µM; in assay [2] it was 21.7 µM; in assay [3] it was 4.34 µM; in assay [4] it was 14.5 µM; in assay [5], 19.7 µM. In assay [6], this compound came in with a TGI of 28 µM. The GI50 is 1.99 µM in assay [3], 3.99 µM in assay [4] and 5.57 µM in assay [5].

Turning to `CC(C)C1COC(c2cccc(C3=N[C@@H](C(C)C)CO3)n2)=N1` (some centres not stated), the TGI in assay [1], in assay [8], in assay [2], in assay [3], in assay [5] and in assay [7] was > 100 µM each time.

`CCN(CC)CC(C(=O)Nc1c(C)cccc1C)/C(C)=N\NC(=O)c1ccncc1` (configuration not stated): the TGI in assay [1], in assay [8], in assay [2], in assay [4], in assay [5] and in assay [7] was > 100 µM in each case.

As for `CCC1CCc2c(OC)ccc(OCC(=O)O)c2C1=O` (configuration not stated), the TGI in assay [1], in assay [8], in assay [3], in assay [4], in assay [5] and in assay [6] was > 100 µM each time. In addition, the TGI in assay [7] is > 100 µM.

The record behind these values is PubChem BioAssay (NCI).
